Experimental data taken from PubChem BioAssay (NCI).
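Dose response: 5 concentrations. Exposure: 48 h. Format: 96-well plates. Endpoint: linear interpolation; highest concentration if not reached. TGI: total growth inhibition.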

Experiments:
Assay in all cases: DTP human tumour cell line panel, 48 h
CAKI-1 renal = system: CAKI-1 renal
OVCAR-3 ovarian = system: OVCAR-3 ovarian
A498 renal = system: A498 renal
HL-60(TB) leukemia = system: HL-60(TB) leukemia
ACHN renal = system: ACHN renal
SK-OV-3 ovarian = system: SK-OV-3 ovarian
SF-295 CNS = system: SF-295 CNS
SNB-19 CNS = system: SNB-19 CNS
A549 NSCLC = system: A549 NSCLC
SK-MEL-5 melanoma = system: SK-MEL-5 melanoma
OVCAR-4 ovarian = system: OVCAR-4 ovarian
NCI-H460 lung = system: NCI-H460 lung
HOP-92 NSCLC = system: HOP-92 NSCLC
MDA-MB-435 = system: MDA-MB-435
DU-145 prostate = system: DU-145 prostate
786-0 renal = system: 786-0 renal
CCRF-CEM leukemia = system: CCRF-CEM leukemia
UO-31 renal = system: UO-31 renal
COLO 205 colon = system: COLO 205 colon
BT-549 breast = system: BT-549 breast
HT29 colon = system: HT29 colon
K-562 leukemia = system: K-562 leukemia
RXF 393 renal = system: RXF 393 renal
UACC-62 melanoma = system: UACC-62 melanoma
MDA-MB-231 breast = system: MDA-MB-231 breast
RPMI-8226 leukemia = system: RPMI-8226 leukemia
T-47D breast = system: T-47D breast
SK-MEL-2 melanoma = system: SK-MEL-2 melanoma
PC-3 prostate = system: PC-3 prostate
HCC-2998 colon = system: HCC-2998 colon
SN12C renal = system: SN12C renal
OVCAR-8 ovarian = system: OVCAR-8 ovarian
NCI-H226 lung = system: NCI-H226 lung
SK-MEL-28 melanoma = system: SK-MEL-28 melanoma
MCF7 breast = system: MCF7 breast
NCI-H23 lung = system: NCI-H23 lung
IGROV1 ovarian = system: IGROV1 ovarian
HCT-116 colon = system: HCT-116 colon
TK-10 renal = system: TK-10 renal
U251 CNS = system: U251 CNS
SW-620 colon = system: SW-620 colon
EKVX NSCLC = system: EKVX NSCLC
HOP-62 NSCLC = system: HOP-62 NSCLC
KM12 colon = system: KM12 colon
HCT-15 colon = system: HCT-15 colon
NCI/ADR-RES ovarian = system: NCI/ADR-RES ovarian
M14 melanoma = system: M14 melanoma
OVCAR-5 ovarian = system: OVCAR-5 ovarian
MOLT-4 leukemia = system: MOLT-4 leukemia
MDA-N = system: MDA-N
LOX IMVI melanoma = system: LOX IMVI melanoma
UACC-257 melanoma = system: UACC-257 melanoma
SNB-75 CNS = system: SNB-75 CNS
SF-268 CNS = system: SF-268 CNS
HS 578T breast = system: HS 578T breast
SF-539 CNS = system: SF-539 CNS
NCI-H522 lung = system: NCI-H522 lung
MALME-3M melanoma = system: MALME-3M melanoma

CCOC(=O)N(CC)c1c(C(F)(F)F)cc(-c2ccccc2)[nH]c1=O
TGI (CAKI-1 renal): > 100 µM
TGI (OVCAR-3 ovarian): > 100 µM
TGI (A498 renal): > 100 µM
TGI (HL-60(TB) leukemia): 30 µM
TGI (ACHN renal): > 100 µM
TGI (SK-OV-3 ovarian): > 100 µM
TGI (SF-295 CNS): > 100 µM
TGI (SNB-19 CNS): > 100 µM
TGI (A549 NSCLC): > 100 µM
TGI (SK-MEL-5 melanoma): > 100 µM
TGI (OVCAR-4 ovarian): 94.8 µM
TGI (NCI-H460 lung): > 100 µM
TGI (HOP-92 NSCLC): > 100 µM
TGI (MDA-MB-435): 56.7 µM
TGI (DU-145 prostate): > 100 µM
TGI (786-0 renal): > 100 µM
TGI (CCRF-CEM leukemia): 63.8 µM
TGI (UO-31 renal): > 100 µM
TGI (COLO 205 colon): > 100 µM
TGI (BT-549 breast): > 100 µM
TGI (HT29 colon): > 100 µM
TGI (K-562 leukemia): > 100 µM
TGI (RXF 393 renal): > 100 µM
TGI (UACC-62 melanoma): > 100 µM
TGI (MDA-MB-231 breast): > 100 µM
TGI (RPMI-8226 leukemia): 39.3 µM
TGI (T-47D breast): > 100 µM
TGI (SK-MEL-2 melanoma): > 100 µM
TGI (PC-3 prostate): > 100 µM
TGI (HCC-2998 colon): > 100 µM
TGI (SN12C renal): > 100 µM
TGI (OVCAR-8 ovarian): > 100 µM
TGI (NCI-H226 lung): > 100 µM
TGI (SK-MEL-28 melanoma): > 100 µM
TGI (MCF7 breast): > 100 µM
TGI (NCI-H23 lung): > 100 µM
TGI (IGROV1 ovarian): > 100 µM
TGI (HCT-116 colon): > 100 µM
TGI (TK-10 renal): > 100 µM
TGI (U251 CNS): > 100 µM
TGI (SW-620 colon): > 100 µM
TGI (EKVX NSCLC): 95.1 µM
TGI (HOP-62 NSCLC): > 100 µM
TGI (KM12 colon): > 100 µM
TGI (HCT-15 colon): > 100 µM
TGI (NCI/ADR-RES ovarian): > 100 µM
TGI (M14 melanoma): > 100 µM
TGI (OVCAR-5 ovarian): > 100 µM
TGI (MOLT-4 leukemia): 70.1 µM
TGI (MDA-N): 53.9 µM
TGI (LOX IMVI melanoma): > 100 µM
TGI (UACC-257 melanoma): > 100 µM

[N-]=[N+]=C1CNC(=O)NC1=O
TGI (CAKI-1 renal): > 100 µM
TGI (OVCAR-3 ovarian): > 100 µM
TGI (SNB-75 CNS): > 100 µM
TGI (HL-60(TB) leukemia): > 100 µM
TGI (ACHN renal): > 100 µM
TGI (SK-OV-3 ovarian): > 100 µM
TGI (SF-295 CNS): > 100 µM
TGI (SNB-19 CNS): > 100 µM
TGI (A549 NSCLC): > 100 µM
TGI (SK-MEL-5 melanoma): > 100 µM
TGI (OVCAR-4 ovarian): > 100 µM
TGI (NCI-H460 lung): > 100 µM
TGI (HOP-92 NSCLC): > 100 µM
TGI (MDA-MB-435): > 100 µM
TGI (SF-268 CNS): > 100 µM
TGI (HS 578T breast): > 100 µM
TGI (DU-145 prostate): > 100 µM
TGI (786-0 renal): > 100 µM
TGI (SF-539 CNS): > 100 µM
TGI (CCRF-CEM leukemia): > 100 µM
TGI (UO-31 renal): > 100 µM
TGI (COLO 205 colon): > 100 µM
TGI (HT29 colon): > 100 µM
TGI (K-562 leukemia): > 100 µM
TGI (RXF 393 renal): > 100 µM
TGI (UACC-62 melanoma): > 100 µM
TGI (MDA-MB-231 breast): > 100 µM
TGI (RPMI-8226 leukemia): > 100 µM
TGI (T-47D breast): > 100 µM
TGI (SK-MEL-2 melanoma): > 100 µM
TGI (PC-3 prostate): > 100 µM
TGI (HCC-2998 colon): > 100 µM
TGI (SN12C renal): > 100 µM
TGI (OVCAR-8 ovarian): > 100 µM
TGI (NCI-H226 lung): > 100 µM
TGI (SK-MEL-28 melanoma): > 100 µM
TGI (NCI-H522 lung): > 100 µM
TGI (MCF7 breast): > 100 µM
TGI (NCI-H23 lung): > 100 µM
TGI (IGROV1 ovarian): > 100 µM
TGI (HCT-116 colon): > 100 µM
TGI (TK-10 renal): > 100 µM
TGI (U251 CNS): > 100 µM
TGI (SW-620 colon): > 100 µM
TGI (EKVX NSCLC): > 100 µM
TGI (HOP-62 NSCLC): > 100 µM
TGI (KM12 colon): > 100 µM
TGI (HCT-15 colon): > 100 µM
TGI (NCI/ADR-RES ovarian): > 100 µM
TGI (M14 melanoma): > 100 µM
TGI (OVCAR-5 ovarian): > 100 µM
TGI (MOLT-4 leukemia): > 100 µM
TGI (MDA-N): > 100 µM
TGI (MALME-3M melanoma): > 100 µM
TGI (LOX IMVI melanoma): > 100 µM
TGI (UACC-257 melanoma): > 100 µM
